Laboratory results from patent US20250305018A1, “SYNTHESIS OF GLYCOSYLATED HYDROXYTRYPTAMINE COMPOUNDS AND METHODS OF THEIR USE” (Cy Biopharma AG, priority 2022, published 2025).

Legend:
[1] = Pharmacokinetic experiment in mice, plasma concentrations by LC-MS/MS; assay type: in vivo, C57Bl/6J mice; conditions: higher doses, oral, compared to psilocybin
Procedure: (§1) In a pharmacokinetic experiment in C57Bl/6J mice (3 animals per timepoint; schedule shown below) two example compounds, Cy1 (4-HO-EPT glycoside) and Cy2 (4-HO-DMT glycoside) were dosed at two different concentrations (20 mg/kg dose shown here) and the parent compounds and their de-glycosylated forms, 4-HO-EPT and psilocin (4-HO-DMT), respectively, were measured by LC-MS/MS in plasma and brain tissue samples. For comparison, psilocybin was dosed at 1.5 mg/kg orally and plasma and brain tissue concentrations of psilocin (4-HO-DMT) were measured. Samples were collected at four or five different timepoints (from 10-minutes post dosing up to 6-hours post dosing) following the test article administration.
(§2) Results are reported in ng/mL for the concentration in plasma and in ng/g tissue for the concentration measured in brain samples.
(§3) Results: The graphs in FIG. 35, FIG. 36, FIG. 37, and FIG. 38 display the time course of concentrations of compounds as indicated. For each time point the data for the individual animals are plotted.

[2] = Pharmacokinetic experiment in mice, brain tissue concentrations by LC-MS/MS; assay type: in vivo, C57Bl/6J mice; conditions: higher doses, oral, compared to psilocybin
Procedure: as §1, §2, §3

With `CCCN(CC)CCc1c[nH]c2cccc(O[C@@H]3O[C@H](CO)[C@@H](O)[C@H](O)[C@H]3O)c12` [Cy1, 4-HO-EPT glycoside] the “period of exposure, plasma” value [1] was “extended” and the “period of exposure, brain” value [2] was “extended”.
